# Entries after “also recorded” stand apart in the source; their conditions may differ. Like-named read-outs stand apart in the source and are kept apart here.
# Tests used:
# [1] = test system: HEK293T-ACE2-TMPRSS2 cells
# [2] = in vitro; conditions: human
# [3] = test system: COVID-19; conditions: follow up randomized controlled trial ref Reis et al., 2021; cited from earlier work
# [4] = test system: Sigma-1 receptor (S1R); conditions: cited from earlier work
# [5] = test system: COVID-19; conditions: COVID-19 patients, treatment for 20 days ref Hoertel, et al., 2021b; cited from earlier work
# [6] = test system: SARS-CoV-2 (B.1); type: cell-based
# [7] = test system: Calu-1 cells
# [8] = test system: ACE2; type: cell-based, human
# [9] = test system: TMPRSS2; type: cell-based, human
# [10] = test system: Zaire Ebola virus (EBOV); conditions: cited from earlier work
# [11] = test system: SARS-CoV-2 B.1.1.7 (alpha); type: cell-based
# [12] = test system: SARS-CoV-2 B.1.351 (beta); type: cell-based
# [13] = test system: SARS-CoV-2 B.1.617.2 (delta); type: cell-based
# [14] = test system: ACE2; type: cell-based, human; remark: listed apart in the source
# [15] = test system: TMPRSS2; type: cell-based, human; remark: listed apart in the source
# [16] = samples collected from pilot fatalities ref Johnson et al., 2007; cited from earlier work
# [17] = test system: S2R; conditions: ref Robson et al., 2012; cited from earlier work
# [18] = ref Narita et al., 1996, Sukhatme et al., 2021
Structure (SMILES),cell viability (ATP level) in non-infected and infected cells [1],CC50 [2],"binding to S1R [4, 18]",genome copies of SARS-CoV-2 (qRT-PCR) [6],infectious virus particles (TCID50 assay) [6],viability of infected Calu-1 cells (ATP level) [7],other results
OCCN1CCN(CCC=C2c3ccccc3Sc3ccc(C(F)(F)F)cc32)CC1 [Flupenthixol],Reduction,19.4 µM,,,,,
O=c1[nH]c2ccccc2n1C1CCN(CCCC(c2ccc(F)cc2)c2ccc(F)cc2)CC1 [Pimozide],Reduction,15 µM,,,,,
COCCCC/C(=N\OCCN)c1ccc(C(F)(F)F)cc1 [Fluvoxamine],Reduction,75.3 µM,bind to S1R,,,,hospitalization risk due to COVID-19 [3]: helps with the reduction of hospitalization risk
CN(C)CCC[C@@]1(c2ccc(F)cc2)OCc2cc(C#N)ccc21 [escitalopram],,,,,,,risk of intubation or death by COVID-19 [5]: reduce the risk of intubation or death
CCOc1ccccc1OC(c1ccccc1)C1CNCCO1 (stereo not shown) [Reboxetine],,,,clearly reduced,clearly reduced,,
CN(C)CCCN1c2ccccc2CCc2ccccc21 [Imipramine],Reduction,68.6 µM,bind to S1R,reducing the genome copies,failed to effect the TCID50,"All compounds, except for imipramine, decreased the cell viability",cell viability (ATP level) [1]: reduced ATP levels
CN(C)CCCN1c2ccccc2Sc2ccc(Cl)cc21 [Chlorpromazine],Reduction,15.9 µM,,,,slight but significant reduction in the viability,amount of infectious virus (TCID50 assay) [6]: failed to observe diminished amount of infectious virus; total amount of virus / genome copy number (qRT-PCR) [6]: able to reduce the total amount of virus; ACE2 mRNA level [8]: induced a reduction of this target; TMPRSS2 mRNA level [9]: remained ineffective
CN(C)CCCC1(c2ccc(F)cc2)OCc2cc(C#N)ccc21 (stereo not shown) [Citalopram],Reduction,274 µM,bind to S1R,clearly reduced,clearly reduced,decreased the cell viability,
CN(C)CCCN1c2ccccc2CCc2ccc(Cl)cc21 [Clomipramine],Reduction,65.7 µM,,clearly reduced,clearly reduced,decreased the cell viability,ACE2 mRNA level [8]: induced a reduction of this target; TMPRSS2 mRNA level [9]: remained ineffective; Zaire Ebola virus (EBOV) entry to target cells [10]: reduce the Zaire Ebola virus (EBOV) entry
CNCCC(Oc1ccc(C(F)(F)F)cc1)c1ccccc1 (stereo not shown) [Fluoxetine],Reduction,41.5 µM,bind to S1R,clearly reduced,clearly reduced,decreased the cell viability,"TCID50 (infectious virus) [11]: reduced; genome copy number (qRT-PCR) [11]: reduced; TCID50 (infectious virus) [12]: reduced; genome copy number (qRT-PCR) [12]: reduced; TCID50 (infectious virus) [13]: reduced; genome copy number (qRT-PCR) [13]: reduced; ACE2 mRNA level [8]: remained unaltered; TMPRSS2 mRNA level [9]: increased; ACE2 protein level [14]: does not exert any effect on the ACE2 expression; TMPRSS2 protein level [15]: significantly increased; also recorded: Despite not being statistically significant, fluoxetine also increased TMPRSS2; Calu-1 viability (ATP levels) ([7]; human): slightly reduced the Calu-1 viability; risk of intubation or death by COVID-19 [5]: reduce the risk of intubation or death; mean concentration of fluoxetine in lungs [16]: 19.6 µg/g"
CN[C@H]1CC[C@@H](c2ccc(Cl)c(Cl)c2)c2ccccc21 [sertraline],,,bind to S1R,,,,Zaire Ebola virus (EBOV) entry to target cells [10]: reduce the Zaire Ebola virus (EBOV) entry
CNCCCN1c2ccccc2CCc2ccccc21 [Desipramine],Reduction,68.9 µM,bind to S1R,,,,
Fc1ccc([C@@H]2CCNC[C@H]2COc2ccc3c(c2)OCO3)cc1 [Paroxetine],Reduction,22.1 µM,bind to S1R,,,,Zaire Ebola virus (EBOV) entry to target cells [10]: reduce the Zaire Ebola virus (EBOV) entry
COc1ccc(C(CN(C)C)C2(O)CCCCC2)cc1 (stereo not shown) [Venlafaxine],,,,ineffective,ineffective,decreased the cell viability,"CC50 [1]: No fitting; cell viability (ATP level) [1]: all the compounds, except (E) venlafaxine and (F) reboxetine reduced ATP levels; risk of intubation or death by COVID-19 [5]: reduce the risk of intubation or death; affinity to S1R ([4]; ref Ishima et al., 2014): very weak affinity"
CNC1(c2ccccc2Cl)CCCCC1=O (stereo not shown) [Ketamine],,,,,,,"binding to S1R ([4]; ref Robson et al., 2012): can bind to both S1R and S2R; binding to S2R [17]: can bind to both S1R and S2R"

# — publication PMC8809408 (Frontiers in Pharmacology, 2022)
